Test results: US20030022821A1, “Bioactive peptides” (priority 1998, published 2003)
In brackets after ≈: the same amount, converted by molar mass. Read-outs that look alike come from different tables or passages of the source. Ends that are not written are not given here. Peptide text beside a SMILES is read from it. * marks the point of attachment. Acm = CC(=O)NC*

Assays:
Format in all cases: cell-based
human red blood cells = assay: Hemolytic assay; conditions: for % Hemolysis 10 μg/ml / % Hemolysis 100 μg/ml: red cells of human
Description: The hemolytic activities of the peptides were determined using fresh human red blood cells. 8 ml blood was taken from a healthy person. 4 ml blood was transferred to a polycarbonate tube containing heparin to a final concentration of 10 U/ml, and the remaining 4 ml blood was transferred to a glass tube containing EDTA with final concentration of 15% EDTA. The erythrocytes were isolated from heparin-treated blood by centrifugation in 1500 rpm for 10 min and washed three times with phosphate-buffered saline (PBS) to remove plasma and buffy coat. The cell pellet was resuspended in PBS to make the final volume of 4 ml. The peptide was diluted to a concentration of 2 mg/ml and 0.1 mg/ml. The peptide was further diluted to the concentrations as stated in Table 15. For each tube PBS was added first, then RBCs and peptide solutions. The hematocrit in the blood treated with EDTA was determined after 30 min with Sysmex K-1000, and the resuspended RBCs were diluted into 10% hematocrit. RBCs in PBS (1%) with and without peptides (Table 15) were incubated in a shaker at […] for 1 hour and then centrifuged at 4000 rpm for 5 min. The supernatant were carefully transferred to new polycarbonate tubes and the absorbance of the supernatant was measured at 540 nm. Baseline hemolysis was hemoglobin released in the presence of PBS, and 100% hemolysis was hemoglobin released in the presence of 0.1% Triton X-100.

[1] = tested on: Escherichia coli ATCC 25922
Description: (§1) The bacterial strains used were: Escherichia coli ATCC 25922 and Staphylococcus aureus ATCC 25923. All strains were stored at −70° C. The bacteria were grown in 2% Bacto Peptone water (Difco 1807-17-4). All tests were performed with bacteria in mid-logarithmic growth phase. Determination of the minimum inhibitory concentration (MIC) of the peptides for bacterial strains were performed in 1% Bacto Peptone water. A standard microdilution technique with an inoculum of 2×10^6 CFU/ml was used. All assays were performed in triplets. Since the peptides are positively charged and therefore could adhere to the plastic wells, we controlled the actual concentration of the peptides in the solution by HPLC. There was no difference between the concentration of the peptides before or after adding the solution to the plastic wells.

[2] = tested on: Staphylococcus aureus ATCC 25923
Description: as §1

MIC E. coli ([1]; ATCC 25922)	MIC S. aureus ([2]; ATCC 25923)	Compound	% Hemolysis 10 μg/ml (human red blood cells)	% Hemolysis 100 μg/ml (human red blood cells)	other results
25 µg/mL (≈ 12.3 µM)	75 µg/mL (≈ 36.9 µM)	CSCC[C@H](NC(=O)[C@H](CCCNC(=N)N)NC(=O)[C@H](Cc1c[nH]c2ccccc12)NC(=O)[C@H](CCC(N)=O)NC(=O)[C@H](Cc1c[nH]c2ccccc12)NC(=O)[C@H](CCCNC(=N)N)NC(=O)[C@H](CC(C)C)NC(=O)[C@H](CSCNC(C)=O)NC(=O)[C@H](CCCCN)NC(=O)[C@@H](N)CCCNC(=N)N)C(=O)N[C@@H](CCCNC(=N)N)C(=O)N[C@@H](CCCCN)C(=O)N[C@H](C(=O)NCC(=O)NCC(=O)O)C(C)C [LFM R1, 9 W8] (H-RKC(Acm)LRWQWRMRKVGG-OH; N-terminus assumed)	3.69%	–	–
–	–	CSCC[C@@H](NC(=O)[C@@H](CCCNC(=N)N)NC(=O)[C@@H](Cc1c[nH]c2ccccc12)NC(=O)[C@@H](CCC(N)=O)NC(=O)[C@@H](Cc1c[nH]c2ccccc12)NC(=O)[C@@H](CCCNC(=N)N)NC(=O)[C@@H](CCCNC(=N)N)NC(=O)[C@@H](CSCNC(C)=O)NC(=O)[C@@H](CCCCN)NC(=O)[C@H](N)Cc1ccccc1)C(=O)N[C@H](CCCCN)C(=O)N[C@H](CCCCN)C(=O)N[C@H](CC(C)C)C(=O)NCC(=O)N[C@H](C)C(=O)O [Enantio LFB 17-31]	3.05%	–	MIC E. coli ([1]; Table 3): 7.5 µg/mL (≈ 3.63 µM); MIC S. aureus ([2]; Table 3, unit assumed): 60 µg/mL (≈ 29 µM)
–	–	CSCC[C@H](NC(=O)[C@H](CCCNC(=N)N)NC(=O)[C@H](Cc1c[nH]c2ccccc12)NC(=O)[C@H](CCC(N)=O)NC(=O)[C@H](Cc1c[nH]c2ccccc12)NC(=O)[C@H](CCCNC(=N)N)NC(=O)[C@H](Cc1ccccc1)NC(=O)[C@H](CSCNC(C)=O)NC(=O)[C@H](CCCCN)NC(=O)[C@@H](N)Cc1ccccc1)C(=O)N[C@@H](CCCCN)C(=O)N[C@@H](CCCCN)C(=O)N[C@@H](CC(C)C)C(=O)NCC(=O)N[C@@H](C)C(=O)O [LFB F4] (H-FKC(Acm)FRWQWRMKKLGA-OH; N-terminus and C-terminus assumed)	2.4%	3.2%	MIC E. coli ATCC 25922 ([1]; ATCC 25922): 20 µg/mL; MIC E. coli ATCC 25922 ([1]; Table 1, value in brackets): 10 µM; MIC E. coli ([1]; Table 12): 20 µg/mL (≈ 9.73 µM); MIC S. aureus ATCC 25923 ([2]; ATCC 25923): 200 µg/mL; MIC S. aureus ATCC 25923 ([2]; Table 1, value in brackets): 100 µM; MIC S. aureus ([2]; Table 12): 200 µg/mL (≈ 97.3 µM)
25 µg/mL (≈ 10.7 µM)	20 µg/mL (≈ 8.54 µM)	CSCC[C@H](NC(=O)[C@H](CCCNC(=N)N)NC(=O)[C@H](Cc1c(S(=O)(=O)c2c(C)c(C)c3c(c2C)CCC(C)(C)O3)[nH]c2ccccc12)NC(=O)[C@H](CCC(N)=O)NC(=O)[C@H](Cc1ccc2ccccc2c1)NC(=O)[C@H](CCCNC(=N)N)NC(=O)[C@H](CCCNC(=N)N)NC(=O)[C@H](CSCNC(C)=O)NC(=O)[C@H](CCCCN)NC(=O)[C@@H](N)Cc1ccccc1)C(=O)N[C@@H](CCCCN)C(=O)N[C@@H](CCCCN)C(=O)N[C@@H](CC(C)C)C(=O)NCC(=O)N[C@@H](C)C(=O)O [LFB Nal6 PMC]	2.8%	17.8%	–
20 µg/mL (≈ 9.11 µM)	25 µg/mL (≈ 11.4 µM)	CSCC[C@H](NC(=O)[C@H](CCCNC(=N)N)NC(=O)[C@H](Cc1c[nH]c2ccccc12)NC(=O)[C@H](CCC(N)=O)NC(=O)[C@H](Cc1c[nH]c2ccccc12)NC(=O)[C@H](CCCNC(=N)N)NC(=O)[C@H](CCCNC(=N)N)NC(=O)[C@H](CSCNC(C)=O)NC(=O)[C@H](CCCCN)NC(=O)[C@@H](N)Cc1ccccc1)C(=O)N[C@@H](CCCCN)C(=O)N[C@@H](CCCCN)C(=O)N[C@@H](CC(C)C)C(=O)N[C@@H](Cc1c[nH]c2ccccc12)C(=O)N[C@@H](C)C(=O)O [LFB W14, H2N-Phe-Lys-Cys-Arg-Arg-Trp-Gln-Trp-Arg-Met-Lys-Lys-Leu-Trp-Ala-COOH] (H-FKC(Acm)RRWQWRMKKLWA-OH)	3%	4.1%	MIC E. coli ([1]; Table 6): 20 µg/mL (≈ 9.11 µM); MIC S. aureus ([2]; Table 6, unit assumed): 25 µg/mL (≈ 11.4 µM)
20 µg/mL (≈ 9.63 µM)	20 µg/mL (≈ 9.63 µM)	CSCC[C@H](NC(=O)[C@H](CCCNC(=N)N)NC(=O)[C@H](Cc1c[nH]c2ccccc12)NC(=O)[C@H](CCC(N)=O)NC(=O)[C@H](Cc1c[nH]c2ccccc12)NC(=O)[C@H](CCCNC(=N)N)NC(=O)[C@H](CCCNC(=N)N)NC(=O)[C@H](Cc1c[nH]c2ccccc12)NC(=O)[C@H](CCCCN)NC(=O)[C@@H](N)Cc1ccccc1)C(=O)N[C@@H](CCCCN)C(=O)N[C@@H](CCCCN)C(=O)N[C@@H](CC(C)C)C(=O)NCC(=O)N[C@@H](C)C(=O)O [LFB W3, H2N-Phe-Lys-Trp-Arg-Arg-Trp-Gln-Trp-Arg-Met-Lys-Lys-Leu-Gly-Ala-COOH]	2.3%	3.8%	MIC E. coli ([1]; Table 6): 20 µg/mL (≈ 9.63 µM); MIC S. aureus ([2]; Table 6, unit assumed): 20 µg/mL (≈ 9.63 µM)
–	–	YRAWRWAWRWR-NH2 [LFB 17-27 A3, 7 R2, 11 W4, 10 Y1 NH2, TYR-ARG-ALA-TRP-ARG-TRP-ALA-TRP-ARG-TRP-ARG-CONH2]	–	–	EC50 (human red blood cells): 400 ± 200 µM; EC 50 (human red blood cells; Table 13, toxicity (hemolysis)): 700 ± 300 µg/mL; MIC E. coli ([1]; Table 14, peptides with a proportion of D amino acids): 10 µg/mL; MIC S. aureus ([2]; Table 14): 2.5 µg/mL
–	–	CSCC[C@H](NC(=O)[C@H](CCCCN)NC(=O)[C@H](CCCCN)NC(=O)[C@H](CC(C)C)NC(=O)CNC(=O)[C@H](C)N)C(=O)N[C@@H](CCCNC(=N)N)C(=O)N[C@@H](Cc1c[nH]c2ccccc12)C(=O)N[C@@H](CCC(N)=O)C(=O)N[C@@H](Cc1c[nH]c2ccccc12)C(=O)N[C@@H](CCCNC(=N)N)C(=O)N[C@@H](CCCNC(=N)N)C(=O)N[C@@H](CSCNC(C)=O)C(=O)N[C@@H](CCCCN)C(=O)N[C@@H](Cc1ccccc1)C(=O)O [Retro LFB 17-31]	2.01%	–	MIC E. coli ([1]; Table 3): 80 µg/mL (≈ 38.7 µM); MIC S. aureus ([2]; Table 3, unit assumed): 200 µg/mL (≈ 96.8 µM)
20 µg/mL (≈ 9.63 µM)	75 µg/mL (≈ 36.1 µM)	CSCC[C@H](NC(=O)[C@H](CCCNC(=N)N)NC(=O)[C@H](Cc1c[nH]c2ccccc12)NC(=O)[C@H](CCC(N)=O)NC(=O)[C@H](Cc1ccc2ccccc2c1)NC(=O)[C@H](CCCNC(=N)N)NC(=O)[C@H](CCCNC(=N)N)NC(=O)[C@H](CSCNC(C)=O)NC(=O)[C@H](CCCCN)NC(=O)[C@@H](N)Cc1ccccc1)C(=O)N[C@@H](CCCCN)C(=O)N[C@@H](CCCCN)C(=O)N[C@@H](CC(C)C)C(=O)NCC(=O)N[C@@H](C)C(=O)O [LFB Nal6]	2.2%	4.4%	–
–	–	YRMWRWAWRWR-NH2 [LFB 17-27 A7 M3 R2, 11 W4, 10 Y1 NH2]	–	–	EC50 (human red blood cells): 291 ± 91 µM; EC 50 (human red blood cells; Table 13, toxicity (hemolysis)): 510 ± 160 µg/mL
200 µg/mL (≈ 107 µM)	>1000 µg/mL	CSCC[C@H](NC(=O)[C@H](C)NC(=O)[C@H](Cc1c[nH]c2ccccc12)NC(=O)[C@H](CCC(N)=O)NC(=O)[C@H](Cc1c[nH]c2ccccc12)NC(=O)[C@H](CCCNC(=N)N)NC(=O)[C@H](CC(C)C)NC(=O)[C@H](CSCNC(C)=O)NC(=O)[C@H](CCCCN)NC(=O)[C@H](C)N)C(=O)N[C@@H](CCCNC(=N)N)C(=O)N[C@@H](CCCCN)C(=O)N[C@H](C(=O)NCC(=O)NCC(=O)O)C(C)C [LFM A1, 9 W8] (H-AKC(Acm)LRWQWAMRKVGG-OH; N-terminus assumed)	2.8%	3.7%	–
500 µg/mL (≈ 249 µM)	>1000 µg/mL	CSCC[C@H](NC(=O)[C@H](CCCNC(=N)N)NC(=O)[C@H](Cc1c[nH]c2ccccc12)NC(=O)[C@H](CCC(N)=O)NC(=O)[C@H](Cc1c[nH]c2ccccc12)NC(=O)[C@H](CCCNC(=N)N)NC(=O)[C@H](CC(C)C)NC(=O)[C@H](CSCNC(C)=O)NC(=O)[C@H](CCCCN)NC(=O)[C@@H](N)CCC(=O)O)C(=O)N[C@@H](CCCNC(=N)N)C(=O)N[C@@H](CCCCN)C(=O)N[C@H](C(=O)NCC(=O)NCC(=O)O)C(C)C [LFM R9 W8] (H-EKC(Acm)LRWQWRMRKVGG-OH; N-terminus assumed)	3.1%	4.59%	–
–	–	H-FKARRWAWRMKKLGA-OH [LFB A3, 7]	–	–	EC 50 (human red blood cells): >1000 µg/mL; EC50 (human red blood cells): > 525 µM
750 µg/mL (≈ 391 µM)	>1000 µg/mL	CSCC[C@H](NC(=O)[C@H](CCC(=O)O)NC(=O)[C@H](Cc1c[nH]c2ccccc12)NC(=O)[C@H](CCC(N)=O)NC(=O)[C@H](Cc1c[nH]c2ccccc12)NC(=O)[C@H](CCCNC(=N)N)NC(=O)[C@H](CC(C)C)NC(=O)[C@H](CSCNC(C)=O)NC(=O)[C@H](CCCCN)NC(=O)[C@H](C)N)C(=O)N[C@@H](CCCNC(=N)N)C(=O)N[C@@H](CCCCN)C(=O)N[C@H](C(=O)NCC(=O)NCC(=O)O)C(C)C [LFM A1 W8] (H-AKC(Acm)LRWQWEMRKVGG-OH; N-terminus assumed)	2.4%	3%	–
